Measured values as given in patent US10681909B2, “Herbicidal triazoles” (FMC Corporation, priority 2014, dated 2020).

Key:
foxtail, giant [1] = assay: Test C postemergence; assay type: in vivo, Setaria faberii
How it was run: (§1)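 Plants are treated postemergence at the 1- to 4-leaf stage (2 to 18 cm), grown in sphagnum peat/vermiculite medium; preemergence treatment is applied to seed planted in loam soil with sand. Both use test chemical in a non-phytotoxic solvent mixture with surfactant.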

barnyardgrass [2] = assay: Test C postemergence; assay type: in vivo, Echinochloa crus-galli
How it was run: as §1

wheat (winter wheat) = assay: Test C postemergence; assay type: in vivo, Triticum aestivum
How it was run: as §1

corn = assay: Test A postemergence; assay type: in vivo, Zea mays; conditions: 0 to 100 scale (0 no effect, 100 complete control), approx. 10 d
How it was run: (§2)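 Pre- and postemergence spray tests in a loam soil–sand mixture: seeded soil received a directed spray, while established seedlings 2–10 cm high at the one- to two-leaf stage were treated over the top. Compounds were carried in non-phytotoxic solvent with surfactant.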

pigweed [3] = assay: Test A preemergence; assay type: in vivo, Amaranthus retroflexus; conditions: 0 to 100 scale (0 no effect, 100 complete control)
How it was run: as §2

ryegrass, Italian = assay: Test C postemergence; assay type: in vivo, Lolium multiflorum
How it was run: as §1

foxtail, giant [4] = assay: Test A postemergence; assay type: in vivo, Setaria faberii; conditions: 0 to 100 scale (0 no effect, 100 complete control), approx. 10 d
How it was run: as §2

rice = assay: Test B flooded paddy test; assay type: in vivo, Oryza sativa; conditions: 250 g ai/ha, applied to paddy water at 2-leaf stage, visual rating after 13 to 15 d, scale 0 (no effect) to 100 (complete control)
How it was run: (§3)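 Pots were flooded to 3 cm above the soil at treatment, and compounds were applied directly into the paddy water. That depth was held throughout. After 13 to 15 d in a greenhouse, plants were rated visually against untreated controls.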

kochia = assay: Test C postemergence; assay type: in vivo, Kochia scoparia
How it was run: as §1

oilseed rape = assay: Test C postemergence; assay type: in vivo, Brassica napus
How it was run: as §1

chickweed = assay: Test C postemergence; assay type: in vivo, Stellaria media
How it was run: as §1

nutsedge, yellow = assay: Test C postemergence; assay type: in vivo, Cyperus esculentus
How it was run: as §1

blackgrass = assay: Test C postemergence; assay type: in vivo, Alopecurus myosuroides
How it was run: as §1

oat, wild = assay: Test C postemergence; assay type: in vivo, Avena fatua
How it was run: as §1

pigweed [5] = assay: Test C postemergence; assay type: in vivo, Amaranthus retroflexus
How it was run: as §1

velvetleaf = assay: Test C postemergence; assay type: in vivo, Abutilon theophrasti
How it was run: as §1

johnsongrass = assay: Test C postemergence; assay type: in vivo, Sorghum halepense
How it was run: as §1

ragweed = assay: Test C postemergence; assay type: in vivo, Ambrosia elatior
How it was run: as §1

barnyardgrass [6] = assay: Test A postemergence; assay type: in vivo, Echinochloa crus-galli; conditions: 0 to 100 scale (0 no effect, 100 complete control), approx. 10 d
How it was run: as §2

ducksalad = assay: Test B flooded paddy test; assay type: in vivo, Heteranthera limosa; conditions: 250 g ai/ha, applied to paddy water at 2-leaf stage, visual rating after 13 to 15 d, scale 0 (no effect) to 100 (complete control)
How it was run: as §3

Structure (SMILES): COc1nc(-c2ccc(C(F)(F)F)cc2)nn1Cc1ccnc(C(F)(F)F)c1 [Compound 25]
- Plant response rating (scale of 0 to 100 where 0 is no effect and 100 is complete control) (foxtail, giant [1]; 31 g ai/ha): 10
- Plant response rating (scale of 0 to 100 where 0 is no effect and 100 is complete control) (foxtail, giant [1]; 62 g ai/ha): 20
- Plant response rating (scale of 0 to 100 where 0 is no effect and 100 is complete control) (foxtail, giant [1]; 125 g ai/ha): 20
- Plant response rating (scale of 0 to 100 where 0 is no effect and 100 is complete control) (foxtail, giant [1]; 250 g ai/ha): 35
- Plant response rating (scale of 0 to 100 where 0 is no effect and 100 is complete control) (barnyardgrass [2]; 31 g ai/ha): 20
- Plant response rating (scale of 0 to 100 where 0 is no effect and 100 is complete control) (barnyardgrass [2]; 62 g ai/ha): 25
- Plant response rating (scale of 0 to 100 where 0 is no effect and 100 is complete control) (barnyardgrass [2]; 125 g ai/ha): 35
- Plant response rating (scale of 0 to 100 where 0 is no effect and 100 is complete control) (barnyardgrass [2]; 250 g ai/ha): 35
- Plant response rating (scale of 0 to 100 where 0 is no effect and 100 is complete control) (wheat (winter wheat); 31 g ai/ha): 5
- Plant response rating (scale of 0 to 100 where 0 is no effect and 100 is complete control) (wheat (winter wheat); 62 g ai/ha): 5
- Plant response rating (scale of 0 to 100 where 0 is no effect and 100 is complete control) (wheat (winter wheat); 125 g ai/ha): 5
- Plant response rating (scale of 0 to 100 where 0 is no effect and 100 is complete control) (wheat (winter wheat); 250 g ai/ha): 10
- Plant response rating, Corn (corn; 31 g ai/ha): 10
- Plant response rating, Corn (corn; 125 g ai/ha): 30
- Plant response rating, Pigweed (pigweed [3]; 31 g ai/ha): 90
- Plant response rating, Pigweed (pigweed [3]; 125 g ai/ha): 100
- Plant response rating (scale of 0 to 100 where 0 is no effect and 100 is complete control) (ryegrass, Italian; 31 g ai/ha): 5
- Plant response rating (scale of 0 to 100 where 0 is no effect and 100 is complete control) (ryegrass, Italian; 62 g ai/ha): 5
- Plant response rating (scale of 0 to 100 where 0 is no effect and 100 is complete control) (ryegrass, Italian; 125 g ai/ha): 10
- Plant response rating (scale of 0 to 100 where 0 is no effect and 100 is complete control) (ryegrass, Italian; 250 g ai/ha): 30
- Plant response rating, Foxtail, Giant (foxtail, giant [4]; 31 g ai/ha): 50
- Plant response rating, Foxtail, Giant (foxtail, giant [4]; 125 g ai/ha): 90
- Plant response rating, Rice, Flood (rice): 25
- Plant response rating (scale of 0 to 100 where 0 is no effect and 100 is complete control) (kochia; 31 g ai/ha): 90
- Plant response rating (scale of 0 to 100 where 0 is no effect and 100 is complete control) (kochia; 62 g ai/ha): 90
- Plant response rating (scale of 0 to 100 where 0 is no effect and 100 is complete control) (kochia; 125 g ai/ha): 90
- Plant response rating (scale of 0 to 100 where 0 is no effect and 100 is complete control) (kochia; 250 g ai/ha): 95
- Plant response rating (scale of 0 to 100 where 0 is no effect and 100 is complete control) (oilseed rape; Oilsee Rape, 250 g ai/ha): 90
- Plant response rating (scale of 0 to 100 where 0 is no effect and 100 is complete control) (oilseed rape; Oilseed Rape, 31 g ai/ha): 90
- Plant response rating (scale of 0 to 100 where 0 is no effect and 100 is complete control) (oilseed rape; Oilseed Rape, 62 g ai/ha): 90
- Plant response rating (scale of 0 to 100 where 0 is no effect and 100 is complete control) (oilseed rape; Oilseed Rape, 125 g ai/ha): 90
- Plant response rating (scale of 0 to 100 where 0 is no effect and 100 is complete control) (chickweed; 31 g ai/ha): 50
- Plant response rating (scale of 0 to 100 where 0 is no effect and 100 is complete control) (chickweed; 62 g ai/ha): 90
- Plant response rating (scale of 0 to 100 where 0 is no effect and 100 is complete control) (chickweed; 125 g ai/ha): 85
- Plant response rating (scale of 0 to 100 where 0 is no effect and 100 is complete control) (chickweed; 250 g ai/ha): 100
- Plant response rating (scale of 0 to 100 where 0 is no effect and 100 is complete control) (nutsedge, yellow; 31 g ai/ha): 20
- Plant response rating (scale of 0 to 100 where 0 is no effect and 100 is complete control) (nutsedge, yellow; 62 g ai/ha): 20
- Plant response rating (scale of 0 to 100 where 0 is no effect and 100 is complete control) (nutsedge, yellow; 125 g ai/ha): 25
- Plant response rating (scale of 0 to 100 where 0 is no effect and 100 is complete control) (nutsedge, yellow; 250 g ai/ha): 25
- Plant response rating (scale of 0 to 100 where 0 is no effect and 100 is complete control) (blackgrass; 31 g ai/ha): 5
- Plant response rating (scale of 0 to 100 where 0 is no effect and 100 is complete control) (blackgrass; 62 g ai/ha): 10
- Plant response rating (scale of 0 to 100 where 0 is no effect and 100 is complete control) (blackgrass; 125 g ai/ha): 30
- Plant response rating (scale of 0 to 100 where 0 is no effect and 100 is complete control) (blackgrass; 250 g ai/ha): 60
- Plant response rating (scale of 0 to 100 where 0 is no effect and 100 is complete control) (oat, wild; 31 g ai/ha): 10
- Plant response rating (scale of 0 to 100 where 0 is no effect and 100 is complete control) (oat, wild; 62 g ai/ha): 20
- Plant response rating (scale of 0 to 100 where 0 is no effect and 100 is complete control) (oat, wild; 125 g ai/ha): 25
- Plant response rating (scale of 0 to 100 where 0 is no effect and 100 is complete control) (oat, wild; 250 g ai/ha): 35
- Plant response rating (scale of 0 to 100 where 0 is no effect and 100 is complete control) (pigweed [5]; 31 g ai/ha): 100
- Plant response rating (scale of 0 to 100 where 0 is no effect and 100 is complete control) (pigweed [5]; 62 g ai/ha): 100
- Plant response rating (scale of 0 to 100 where 0 is no effect and 100 is complete control) (pigweed [5]; 125 g ai/ha): 100
- Plant response rating (scale of 0 to 100 where 0 is no effect and 100 is complete control) (pigweed [5]; 250 g ai/ha): 100
- Plant response rating (scale of 0 to 100 where 0 is no effect and 100 is complete control) (velvetleaf; 31 g ai/ha): 35
- Plant response rating (scale of 0 to 100 where 0 is no effect and 100 is complete control) (velvetleaf; 62 g ai/ha): 50
- Plant response rating (scale of 0 to 100 where 0 is no effect and 100 is complete control) (velvetleaf; 125 g ai/ha): 70
- Plant response rating (scale of 0 to 100 where 0 is no effect and 100 is complete control) (velvetleaf; 250 g ai/ha): 75
- Plant response rating (scale of 0 to 100 where 0 is no effect and 100 is complete control) (johnsongrass; 31 g ai/ha): 10
- Plant response rating (scale of 0 to 100 where 0 is no effect and 100 is complete control) (johnsongrass; 62 g ai/ha): 20
- Plant response rating (scale of 0 to 100 where 0 is no effect and 100 is complete control) (johnsongrass; 125 g ai/ha): 20
- Plant response rating (scale of 0 to 100 where 0 is no effect and 100 is complete control) (johnsongrass; 250 g ai/ha): 30
- Plant response rating (scale of 0 to 100 where 0 is no effect and 100 is complete control) (ragweed; 31 g ai/ha): 65
- Plant response rating (scale of 0 to 100 where 0 is no effect and 100 is complete control) (ragweed; 62 g ai/ha): 80
- Plant response rating (scale of 0 to 100 where 0 is no effect and 100 is complete control) (ragweed; 125 g ai/ha): 75
- Plant response rating (scale of 0 to 100 where 0 is no effect and 100 is complete control) (ragweed; 250 g ai/ha): 85
- Plant response rating, Barnyardgrass (barnyardgrass [6]; 31 g ai/ha): 20
- Plant response rating, Barnyardgrass (barnyardgrass [6]; 125 g ai/ha): 60
- Plant response rating, Ducksalad, Flood (ducksalad): 20
